Source: patent US20160279190A1, “MODULATION OF AXON DEGENERATION” (GENENTECH, INC., priority 2008, published 2016)
Entries after “also recorded” stand apart in the source; their conditions may differ.

Key:
[1] = system: cerebellar granule neurons (CGNs); experiment: serum deprivation/KCl reduction-induced degeneration; assay type: cell-based, mouse; conditions: 5 mM KCl, 24 hours
Procedure: Kinase inhibitors (inhibitors of GSK3, JNK, EGFR, p38, and CaMKK) were tested for their capacity to protect cultured cerebellar granule neurons (CGNs) following serum deprivation/KCl reduction. Briefly, CGNs isolated from P7 mouse brain were cultured on PDL- and laminin-coated 96-well tissue culture dishes in medium containing serum and potassium (Basal Medium Eagles including 29 mM KCl and 10% FBS) at 37° C. After 24 hours in culture, cells were switched to “deprivation” medium (Basal Medium Eagles including 5 mM KCl), alone or in combination with various small molecule inhibitors as shown in Table 8. After a further 24 hours in culture, the neurons were fixed with 4% paraformaldehyde and stained with a neuronal marker (anti-class III β-Tubulin, Covance). Image acquisition was performed using the ImageXpress automated imaging system (Molecular Devices).

DRGs [2] = experiment: Campenot chamber local axon degeneration, anti-NGF in axon compartment; assay type: cell-based, mouse; conditions: for formation of varicosities in locally NGF-deprived axons: axon inhibitors added to axon compartment: 10 μM AG555, 30 μM SB239; for Axon Compartment (axon protected when inhibitor is in axon compartment) / Cell Body Compartment (axon protected when inhibitor is in cell body compartment): anti-NGF in axon compartment, 28 hours
Procedure: Teflon dividers (Tyler Research) were cleaned by washing in water and wiping them clean of any residual grease. Dividers were then soaked in Nochromix (Godax Laboratories)/sulfuric acid overnight, rinsed five times in distilled and autoclaved water (SQ water), boiled for 30 minutes, and then air-dried before use.
Mouse laminin (5 μg/ml in sterile filtered water; Invitrogen) was added to PDL coated 35 mm dishes (BD Biosciences) and they were incubated for 1 hour at 37° C., followed by two rinses in SQ water. The dishes were vacuum-dried and then air-dried in a laminar flow hood for 15 minutes. Prepared dishes were then scored with a pin rake (Tyler Research). […] High vacuum grease (VWR) was added to each Teflon divider under a dissection scope. The laminin coated PDL dishes were inverted and dropped onto the Teflon divider, with additional pressure added by use of a toothpick in the non-track-containing regions. Dishes were incubated for 1 hour at 37° C. Five hundred microliters of NBM+MC (50 ng/ml NGF) solution was added to each of the side compartments, and a grease barrier was added in front of the center cell slot.
Free E13.5 spinal cords were dissected from mouse embryos and placed into NBM+MC (25 ng/ml NGF) solution. DRGs were detached from the spinal cord with a tungsten needle. An NBM+MC-lubricated P200 pipette was used to move DRGs into a 1.5 ml tube. DRGs were pelleted with a tabletop centrifuge for 30 seconds. The supernate was discarded and 0.05% Trypsin/EDTA (cold) was added. The pellet was resolubilized with a pipette and incubated at 37° C. for 15 minutes with constant agitation (650 RPM). The sample was again centrifuged and the supernate discarded. The pellet was resuspended in warm NBM+MC (50 ng/ml NGF) solution and triturated with a flamed glass pipette 20 times, followed by trituration with a fire-bored glass pipette another 20 times. The samples were again centrifuged and the resulting pellets were resuspended in 0.5 ml NBM+MC (50 ng/ml NGF) solution. The cells were diluted to a final concentration of 2.5×10^6 cells/ml. The cell suspensions were loaded into a 1 ml syringe with a 22 gauge needle. The center slot of the Campenot divider was filled using the syringe (to a volume of at least 50 μl). The Campenot chamber was incubated overnight at 37° C. 2.5 ml NGF+MC (50 ng/ml NGF) solution was added to the center compartment and the grease gate was removed. The outer medium (cell body compartment) was replaced after three days with 2.5 ml NBM+MC medium (with 25 ng/ml NGF). After five days in culture, one distal compartment was washed three times with warmed NBM+MC (no NGF) solution. After the third wash, 500 μl NBM+MC (no NGF) solution was added to the axon compartment in combination with either 0.5% DMSO or an inhibitor. The cell body compartment was replaced with 2.5 ml NBM+MC medium (with 25 ng/ml NGF) containing either 0.5% DMSO or inhibitor.
After 28 hours of anti-NGF antibody treatment, 8% PFA/30% sucrose solution (see above) was added directly to the culture medium at a 1:1 dilution and incubated for 30 minutes. The Teflon divider was removed after the first 15 minutes of addition. The system was washed once with 2.5 ml PBS prior to immunostaining. Neurons were blocked in 5% BSA/0.2% triton in PBS for 30 minutes. The primary antibody Tuj1 (Covance) was added to a final dilution of 1:1000 in PBS containing 2% BSA and incubated overnight at 4° C. The dish was washed once with PBS. […] The dish was washed twice with PBS, and a 22×22 mm coverslip (VWR) was added with 350 μl of fluoromount G (Electron Microscopy Sciences). The neurons were visualized by use of a fluorescence microscope.
As described above, E13.5 DRGs were isolated and grown for 5 days in a Campenot chamber.

[3] = system: heregulin induced tyrosine phosphorylation in MDA-MB-453 cells; conditions: published source (footnote b), read-out: Cellular IC50; cited from earlier work
[4] = system: protein tyrosine phosphorylation in 3T3-Her2 cells; conditions: published source (footnote c), read-out: Cellular IC50; cited from earlier work
DRGs [5] = experiment: G-protein/GPCR inhibitors in NGF withdrawal-induced degeneration in DRGs; assay type: cell-based
Procedure: The assays described herein identified several inhibitors of G-proteins and G-protein coupled receptors (GPCRs) that decrease degeneration in neurons. Experiments were performed in DRGs to verify the role of G-proteins and GPCRs in degeneration pathways. The experimental protocols used in these experiments are the same as those described in Example 14. Pertussis toxin and SCH 202676 were purchased from Tocris Bioscience.

[6] = system: dorsal spinal cord explants; experiment: dorsal spinal cord (DSC) explant degeneration; assay type: cell-based; conditions: 3.4 μM, 11.1 μM, 33.3 μM and 100 μM (FIG. 37)
Excerpt: DSCs grow out axons over a period of days, but if they are not rescued with the addition of a survival factor, they will eventually degenerate.

[7] = system: dorsal root ganglion neurons; experiment: EGFR ligand added to neurons maintained in NGF: axon degeneration; assay type: cell-based, mouse; conditions: 100 μg/mL EGF
Procedure: (§1) Dorsal Root Ganglia (DRG) immunoblots were prepared as follows. Primary cells used in the experiments were Charles River CD-1 E13 Dorsal Root Ganglia (DRG). The cells were maintained in N3/F12 (+25 ng/ml NGF) medium (Ham's F12 (23 ml), N3 supplement (1 ml), glucose (1 ml of 1 M glucose stock), 25 ng/ml Nerve Growth Factor 2.5 S, mouse (Roche 11362348001) in Ham's F12 (stock: 50 μg/ml −80° C.), which was filter-sterilized prior to use). The experiments also employed Triton lysis buffer (20 mM Tris pH 7.5, 150 mM NaCl, 0.1% Triton-X100, 100× Phosphatase inhibitor cocktail I (added fresh), 100× Phosphatase inhibitor cocktail II (added fresh), 1 tablet/10 ml Protease inhibitor tablet (added fresh)).
DRG explants were prepared on Day 0. Embryo dissections were carried out in L15 medium (dissection tools were soaked in 70% isopropanol, and dishes were set up on ice: 10 cm dishes (4 embryos per dish) and one 6 cm dish for spinal cords). E13.5 spinal cords were extracted into DMEM+10% FBS. 5×20 DRGs were detached from the spinal cord. 8 well slides were filled with 250 μl N3/F12 (25 ng/ml NGF)+7 μM cytosine arabinoside. […]
The goal of these experiments was to see if activation of EGFR by EGF would be sufficient to drive degeneration. […] To ensure that EGF is capable of activating EGFR/ErbBs in the neuronal cultures used in these assays, ERK activation was assessed (ERK is a downstream target of EGFR).

ERK = ERK activation by EGFR ligand, Western blot; assay type: cell-based, mouse; conditions: 100 μg/mL EGF, 30 minutes to 1 hour
Procedure: as §1
DRG explants were prepared on Day 0. Embryo dissections were carried out in L15 medium (dissection tools were soaked in 70% isopropanol, and dishes were set up on ice: 10 cm dishes (4 embryos per dish) and one 6 cm dish for spinal cords). E13.5 spinal cords were extracted into DMEM+10% FBS. […]
Immunoblotting was carried out by aspiration of media with a pipette tip, washing twice with ice-cold sterile PBS, and removal of all PBS using an aspirator with a pipette tip or kimwipes. […] Quantification was carried out by choosing a background method and standard bands that minimize negative/counter-intuitive values: i.e., top/bottom, right/left, user-defined (user-defined). […]

[8] = inhibitor 30 μM, listed as SB239
[9] = inhibitor 30 μM, listed as SB239063

Compound: C=C/C=C(\C=C)CCCNC(=O)/C(C#N)=C/c1ccc(O)c(O)c1 [AG 555]
- protection of cerebellar granule neurons from serum deprivation/KCl reduction ([1]; inhibitor 1 μM or 10 μM): protect cerebellar granule neurons from serum deprivation/KCl reduction
- formation of varicosities in locally NGF-deprived axons (DRGs [2]): fewer varicosities
- Axon Compartment (axon protected when inhibitor is in axon compartment) (DRGs [2]; inhibitor 10 μM): did not degenerate; also recorded: protected from local degeneration; also recorded: Yes (4)
- Cell Body Compartment (axon protected when inhibitor is in cell body compartment) (DRGs [2]; inhibitor 10 μM): failed to prevent degeneration; also recorded: No (4)

Compound: C=CC(=O)Nc1ccc2ncnc(Nc3cccc(Br)c3)c2c1 [PD168393]
- IC50 [3]: 0.005 µM
- Axon Compartment (axon protected when inhibitor is in axon compartment) (DRGs [2]; inhibitor 5 μM): Yes (1)
- Cell Body Compartment (axon protected when inhibitor is in cell body compartment) (DRGs [2]; inhibitor 5 μM): No (1)
- IC50 [4]: 100 µM

Compound: COc1nccc(-c2c(-c3ccc(F)cc3)ncn2C2CCC(O)CC2)n1 (centres unmarked) [SB 239063]
- protection of cerebellar granule neurons from serum deprivation/KCl reduction ([1]; inhibitor 5 μM): protect cerebellar granule neurons from serum deprivation/KCl reduction
- formation of varicosities in locally NGF-deprived axons (DRGs [2]): fewer varicosities
- Axon Compartment (axon protected when inhibitor is in axon compartment) (DRGs [2]; inhibitor 5 μM): Yes (1)
- Cell Body Compartment (axon protected when inhibitor is in cell body compartment) (DRGs [2]; inhibitor 5 μM): No (1)
- Axon Compartment (axon protected when inhibitor is in axon compartment) (DRGs [2]; [8]): did not degenerate; also recorded: protected from local degeneration
- Cell Body Compartment (axon protected when inhibitor is in cell body compartment) (DRGs [2]; [8]): failed to prevent degeneration
- Axon Compartment (axon protected when inhibitor is in axon compartment) (DRGs [2]; [9]): Yes (3)
- Cell Body Compartment (axon protected when inhibitor is in cell body compartment) (DRGs [2]; [9]): No (3)

Compound: CN=c1nc(-c2ccccc2)n(-c2ccccc2)s1 [SCH 202676]
- NGF withdrawal-induced degeneration in DRGs (DRGs [5]; 0.1 μM, 1 μM, 10 μM or 100 μM (FIGS. 49 and 50)): decreases NGF withdrawal-induced degeneration in DRGs

Compound: O=C1c2ccccc2-c2n[nH]c3cccc1c23 [SP600125]
- protection of cerebellar granule neurons from serum deprivation/KCl reduction ([1]; inhibitor 5 μM): protect cerebellar granule neurons from serum deprivation/KCl reduction
- Axon Compartment (axon protected when inhibitor is in axon compartment) (DRGs [2]; inhibitor 5 μM): Yes (1)
- Cell Body Compartment (axon protected when inhibitor is in cell body compartment) (DRGs [2]; inhibitor 5 μM): Yes (1)
- Axon Compartment (axon protected when inhibitor is in axon compartment) (DRGs [2]; inhibitor 10 μM): Yes (1)
- Cell Body Compartment (axon protected when inhibitor is in cell body compartment) (DRGs [2]; inhibitor 10 μM): Yes (1)

Compound: C#Cc1cccc(Nc2ncnc3cc(OCCOC)c(OCCOC)cc23)c1 [Tarceva, N-(3-ethynylphenyl)-6,7-bis(2-methoxyethoxy)quinazolin-4-amine]
- degeneration in dorsal spinal cord explants [6]: delay this degeneration program; also recorded: blocks degeneration in dorsal spinal cord explants

Compound: EGF: ErbB ligand (ErbB1) that activates EGFR (NSDSECPLSHDGYCLHDGVCMYIEALDKYACNCVVGYIGERCQYRDLKWWELR; Epidermal growth factor; UniProt P01133 971-1023, looked up)
- induction of axon degeneration in neurons maintained in NGF [7]: does not cause degeneration; also recorded: does not induce axon degeneration
- phosphorylation of ERK (ERK activity by Western blot) (ERK): increased ERK activity; also recorded: induces phosphorylation of ERK

Compound: Pertussis toxin
- degeneration in neurons following NGF withdrawal (DRGs [5]; 0.01 μg/mL, 0.1 μg/mL or 1 μg/mL (FIG. 51)): decreases degeneration in neurons following NGF withdrawal
